Read-outs that look alike come from different tables or passages of the source. Some results are limits rather than exact numbers.

Data set [1] is described as follows: Dissolved concentration of the L-amino acid in the reaction mixture after completion of the reaction (HPLC). The conditions noted are these: substrate solution pH 8, 45° C.
Method: (§1) Here, the “dissolved concentration” refers to percentage (%) by weight of an amino acid dissolvable in the reaction mixture after completion of the reaction, and can be measured by the following method. That is, the L-amino acid is added to the reaction mixture after completion of the reaction until the L-amino acid is no longer dissolved. After that, the mixture is centrifuged, and the resulting supernatant is filtered. The amino acid present in the filtrate is quantitatively analyzed by high performance liquid chromatography, and the percentage (%) by weight of the amino acid is calculated.
For data set [2] the following is noted: pH 8.
Method: as §1
[3] abbreviates: L-amino acid dissolvable in reaction mixture after reaction of the N-succinyl-DL-amino acid with liquid cultures of E. coli HB101 (pNHK) and E. coli HB101 (pNIG).

With `C=CCCCCC[C@H](N)C(=O)O` [L-6-heptenylglycine], the dissolved concentration in data set [1] (setting [3]) and in data set [1] (L-amino acid dissolvable in reaction mixture after reaction with liquid culture of E. coli HB101 (pNIGHK)) was at most 0.5 % by weight in each case.

Turning to L-2-indanylglycine, in data set [2], the dissolved concentration is on record as at most 0.5 % by weight.

On to `N[C@@H](Cc1cccc(F)c1)C(=O)O` [L-3-fluorophenylalanine], for which the dissolved concentration in data set [1] (setting [3]) is recorded as at most 0.5 % by weight.

In the case of `N[C@@H](Cc1ccc(Br)cc1)C(=O)O` [L-4-bromophenylalanine], the dissolved concentration in data set [1] (setting [3]) was at most 0.5 % by weight.

Take `N[C@@H](Cc1ccccc1)C(=O)O` [L-phenylalanine, reference compound]: the dissolved concentration in data set [1] (setting [3]) was 4 % by weight.

(Values after US9464306B2, “Method for producing L-amino acid” (KANEKA CORPORATION, priority 2008, dated 2016).)
